The values that follow come from patent US10800784B2, “Nitrogen-containing heterocyclic amide compound and pharmaceutical use thereof” (Japan Tobacco Inc., priority 2018, dated 2020).

In test [1] the target is human PDHK1 (hPDHK1) (Homo sapiens (Human), UniProt Q15118). In words: Inhibitory action of PDHK1 activity in vitro (residual PDH activity after PDHK reaction). Type of test: biochemical. The settings on record: for IC50: PDH/hPDHK1 complex solution, PDHK reaction at room temperature for 45 min, NADH absorbance at 340 nm, read-out: hPDK1 IC50; for inhibition at 0.003 µM: at 3 nmol/L, shown when IC50 value could not be calculated, read-out: hPDHK1 inhibitory rate at the lowest concentration of the test compound. The gist of the method: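 N-FLAG hPDHK1 (E. coli-expressed, 0.5 μg/mL) precomplexed overnight at 4 °C with porcine heart PDH (0.025 U/mL), then reacted 45 min at room temperature with compound and ATP (0.353 μmol/L as added) in MOPS pH 7.0 buffer. Residual PDH activity after 90 min with pyruvate, CoA, NAD, TPP read as NADH at 340 nm.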
human PDHK1 (hPDHK1), sequence (Q15118 29-436): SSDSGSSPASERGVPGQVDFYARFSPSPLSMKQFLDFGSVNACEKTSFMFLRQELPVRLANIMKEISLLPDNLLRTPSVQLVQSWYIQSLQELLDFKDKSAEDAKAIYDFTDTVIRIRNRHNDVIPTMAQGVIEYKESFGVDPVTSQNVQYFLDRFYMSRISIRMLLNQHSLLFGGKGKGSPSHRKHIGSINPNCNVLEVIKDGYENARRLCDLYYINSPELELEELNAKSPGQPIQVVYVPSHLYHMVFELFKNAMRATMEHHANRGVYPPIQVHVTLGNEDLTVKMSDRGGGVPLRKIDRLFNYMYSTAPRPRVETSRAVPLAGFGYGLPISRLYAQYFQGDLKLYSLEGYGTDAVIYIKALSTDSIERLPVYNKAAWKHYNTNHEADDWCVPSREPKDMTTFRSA

In test [2] the target is human PDHK2 (hPDHK2) (Homo sapiens (Human), UniProt Q15119). In words: Inhibitory action of PDHK2 activity in vitro (residual PDH activity after PDHK reaction). The settings on record: for IC50: PDH/hPDHK2 complex solution, PDHK reaction at room temperature for 45 min, NADH absorbance at 340 nm, read-out: kPDK2 IC50; for hPDHK2 inhibitory rate at the lowest concentration of the test compound: lowest concentration of the test compound in the assay (<3 nmol/L), shown when IC50 value could not be calculated. Type of test: biochemical. The method, boiled down:
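Indirect assay: FLAG-tagged hPDHK2 (0.5 μg/mL) precomplexed overnight at 4 °C with PDH (0.025 U/mL), then kinase reaction with compound and ATP 45 min at room temperature, pH 7.0 MOPS buffer. Residual PDH activity measured after 90 min with pyruvate, CoA, NAD, TPP as NADH absorbance at 340 nm, corrected for compound effect on PDH-only blank.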

Take `C[C@H]1CN(C(=O)c2c3cc(F)c(F)cc3nn2C)Cc2cnc([C@@](C)(O)C(F)(F)F)n21` [Example 9, (5,6-difluoro-2-methyl-2H-indazol-3-yl) ((S)-5-methyl-3-((R)-1,1,1-trifluoro-2-hydroxypropan-2-yl)-5,6-dihydroimidazo[1,5-a]pyrazin-7(8H)-yl)methanone]: the IC50 in test [1] was determined as 7 nM; in test [2], 11 nM.
The corresponding values for `C[C@H]1CN(C(=O)c2cc(-c3ccccc3)nn2C)Cc2cnc([C@@](C)(O)C(F)(F)F)n21` [Example 15] are 3 nM and 5 nM.
The corresponding values for `C[C@H]1CN(C(=O)c2cc(C3CC3)nn2C2CC2)Cc2cnc([C@@](C)(O)C(F)(F)F)n21` [Example 29] are 7 nM and 7 nM.
For `C[C@H]1CN(C(=O)c2ccnc(-c3ccc(F)cc3F)c2)Cc2cnc([C@@](C)(O)C(F)(F)F)n21` [Example 88] the same measures were 3 nM and 4 nM.
`C[C@H]1CN(C(=O)[C@H]2NCCc3ccccc32)Cc2onc([C@@](C)(O)C(F)(F)F)c21` [Example 105]: the IC50 in test [1] is 9 nM; in test [2], 8 nM.
For `C[C@H]1CN(C(=O)c2ccc(C#N)c(C3CC3)c2)Cc2cnc([C@@](C)(O)C(F)(F)F)n21` [Example 28] the same measures were 12 nM and 10 nM.
Take `C[C@H]1CN(C(=O)c2cc(-c3ccc(F)cc3)n[nH]2)Cc2cnc([C@@](C)(O)C(F)(F)F)n21` [Example 34]: the IC50 in test [1] is 10 nM; in test [2], 13 nM.
In the case of `C[C@H]1CN(C(=O)c2nn(C)c3cc(F)c(F)cc23)Cc2cnc([C@@](C)(O)C(F)(F)F)n21` [Example 10, (5,6-difluoro-1-methyl-1H-indazol-3-yl)((S)-5-methyl-3-((R)-1,1,1-trifluoro-2-hydroxypropan-2-yl)-5,6-dihydroimidazo[1,5-a]pyrazin-7(8H)-yl)methanone], the IC50 came to 9 nM in test [1] and 13 nM in test [2].
As for `C[C@H]1CN(C(=O)c2ccc3nn(C)cc3c2)Cc2cnc([C@@](C)(O)C(F)(F)F)n21` [Example 12], the IC50 stood at 8 nM in test [1] and 10 nM in test [2].
On to `C[C@H]1CN(C(=O)c2cc3n(n2)CCO3)Cc2onc([C@@](C)(O)C(F)(F)F)c21` [Example 99], for which the IC50 was found to be 8 nM in test [1] and 12 nM in test [2].
Take `C[C@H]1CN(C(=O)c2cc(-c3ccc(C#N)cc3)nn2C2CC2)Cc2cnc([C@@](C)(O)C(F)(F)F)n21` [Example 35]: the values for the IC50 in test [1] and in test [2] were 3 nM and 4 nM, respectively.
On to `Cc1c(C(=O)N2Cc3cnc([C@@](C)(O)C(F)(F)F)n3[C@@H](C)C2)ccnc1-c1ccc(C#N)cc1` [Example 65], for which the values for the IC50 in test [1] and in test [2] were 4 nM and 5 nM, respectively.
In the case of `C[C@H]1CN(C(=O)c2ncncc2-c2ccc(F)cc2)Cc2cnc([C@@](C)(O)C(F)(F)F)n21` [Example 97], the IC50 in test [1] turned out to be 63 nM; in test [2], 26 nM.
The corresponding values for `C[C@H]1CN(C(=O)c2cncc(-c3ccc(C#N)cc3F)c2)Cc2cnc([C@@](C)(O)C(F)(F)F)n21` [Example 71] are 4 nM and 7 nM.
`C[C@H]1CN(C(=O)c2cc(-c3ccc(Cl)cn3)nn2C)Cc2cnc([C@@](C)(O)C(F)(F)F)n21` [Example 66]: the IC50 in test [1] came out at 4 nM; in test [2], 6 nM.
In the case of `C[C@H]1CN(C(=O)C(C)(C)c2ccc(C(=O)O)c(C3CC3)c2)Cc2onc([C@@](C)(O)C(F)(F)F)c21` [Example 116], the IC50 in test [1] was found to be 17 nM; in test [2], 32 nM.
Regarding `C[C@H]1CN(C(=O)c2cc(C3(C)CC3)n(C)n2)Cc2onc([C@@](C)(O)C(F)(F)F)c21` [Example 119], the IC50 in test [1] came to 4 nM; in test [2], 5 nM.
Turning to `C[C@H]1CN(C(=O)c2ccnc(-c3ccc(F)cc3C#N)c2)Cc2cnc([C@@](C)(O)C(F)(F)F)n21` [Example 54], in test [1], the IC50 is below 3 nM and the inhibition at 0.003 µM was 53%. Also, the IC50 in test [2] worked out at 5 nM.
Turning to `C[C@H]1CN(C(=O)c2cc(-c3ccc(F)cc3C#N)nn2C)Cc2cnc([C@@](C)(O)C(F)(F)F)n21` [Example 61], the IC50 in test [1] turned out to be 3 nM; in test [2] it was 5 nM.
As for `C[C@H]1CN(C(=O)c2ccc(F)c(-c3cncc(F)c3)c2)Cc2cnc([C@@](C)(O)C(F)(F)F)n21` [Example 83], the half-maximal inhibitory concentration (IC50) is 5 nM in test [1] and 11 nM in test [2].
On to `C[C@H]1CN(C(=O)c2cccc(-c3ccc(C#N)cn3)c2)Cc2cnc([C@@](C)(O)C(F)(F)F)n21` [Example 79], for which the IC50 in test [1] turned out to be 5 nM; in test [2], 8 nM.
In the case of `C[C@H]1CN(C(=O)c2c(C#N)c(C3CC3)nn2C)Cc2cnc([C@@](C)(O)C(F)(F)F)n21` [Example 19], the IC50 was 5 nM in test [1] and below 3 nM in test [2]. The “hPDHK2 inhibitory rate at the lowest concentration of the test compound” value in test [2] is on record as 67%.
Consider `C[C@H]1CN(C(=O)c2ccc(F)c(-c3ccc(C#N)cn3)c2)Cc2cnc([C@@](C)(O)C(F)(F)F)n21` [Example 58], for which the IC50 is 3 nM in test [1] and 4 nM in test [2].
For `C[C@H]1CN(C(=O)c2n[nH]c3c2CCC(C)(C)C3)Cc2onc([C@@](C)(O)C(F)(F)F)c21` [Example 103], in test [1], the IC50 was below 3 nM and the inhibition at 0.003 µM was 67%. Moreover, in test [2], the IC50 is below 3 nM and the “hPDHK2 inhibitory rate at the lowest concentration of the test compound” value is 66%.
For the compound `C[C@H]1CN(C(=O)c2cc(-c3ccc(C#N)cc3)n(C)n2)Cc2cnc([C@@](C)(O)C(F)(F)F)n21` [Example 33], the IC50 in test [1] came out at 12 nM; in test [2], 16 nM.
Consider `C[C@H]1CN(C(=O)c2ccc3c(c2)OC(F)(F)O3)Cc2cnc([C@@](C)(O)C(F)(F)F)n21` [Example 11, (2,2-difluorobenzo[d][1,3]dioxol-5-yl)((S)-5-methyl-3-((R)-1,1,1-trifluoro-2-hydroxypropan-2-yl)-5,6-dihydroimidazo[1,5-a]pyrazin-7(8H)-yl)methanone], for which the IC50 was determined as 14 nM in test [1] and 15 nM in test [2].
On to `C[C@H]1CN(C(=O)c2cc(-c3ccc(C#N)cc3)ncc2F)Cc2cnc([C@@](C)(O)C(F)(F)F)n21` [Example 68, 4-(5-fluoro-4-((S)-5-methyl-3-((R)-1,1,1-trifluoro-2-hydroxypropan-2-yl)-5,6,7,8-tetrahydroimidazo[1,5-a]pyrazine-7-carbonyl)pyridin-2-yl)benzonitrile], for which the figures for the IC50 in test [1] and in test [2] were 4 nM and 6 nM, respectively.
With `C[C@H]1CN(C(=O)c2ncccc2-c2ccc(F)cc2)Cc2cnc([C@@](C)(O)C(F)(F)F)n21` [Example 39], the IC50 in test [1] came out at 46 nM; in test [2], 18 nM.
For `C[C@H]1CN(C(=O)c2cc(C3CC3)n(C)n2)Cc2onc([C@@](C)(O)C(F)(F)F)c21` [Example 113] the same measures were 4 nM and 5 nM.
Take `C[C@H]1CN(C(=O)c2c(C#N)c(C3CC3)nn2C)Cc2onc([C@@](C)(O)C(F)(F)F)c21` [Example 117]: the IC50 in test [1] was found to be 6 nM; in test [2], 8 nM.
